Results published in the supplement of paper PMC10307832.

What was measured:
Experiment in all cases: relative viability (nuclei count vs DMSO), 5 days (fraction); higher = more cells survive
[1] = compound: CC(C)N(CCCNC(=O)Nc1ccc(C(C)(C)C)cc1)C[C@H]1O[C@@H](n2ccc3c(N)ncnc32)[C@H](O)[C@@H]1O + C[C@]1(O)C[C@@H](c2nc(-c3ccc4ccc(-c5ccccc5)nc4c3)c3c(N)nccn32)C1 [Linsitinib] (partner 1 µM)
Outline: (§1)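 Relative viability divides the nuclei count in treated wells by that in vehicle wells. Lung cancer cell lines were seeded in 1536-well plates, dosed by pin tool the next day, and fixed and stained after 5 days in one step with final 0.05% Triton X-100, 1% formaldehyde and 1 ug/ml Hoechst. Dosing was a single drug or a fixed anchor-drug dose plus five library-drug doses (not always all listed) in √10 steps, and values are medians of duplicate plates imaged at 4×.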

[2] = compound: CC(C)N(CCCNC(=O)Nc1ccc(C(C)(C)C)cc1)C[C@H]1O[C@@H](n2ccc3c(N)ncnc32)[C@H](O)[C@@H]1O + CC(C)C[C@H](NC(=O)[C@H](Cc1ccccc1)NC(=O)c1cnccn1)B(O)O [Bortezomib] (partner 0.002 µM)
Outline: as §1

[3] = compound: CC(C)=CC[C@@H](O)C1=CC(=O)c2c(O)ccc(O)c2C1=O [Shikonin] + Cc1cc(Nc2cc(N3CCN(C)CC3)nc(Sc3ccc(NC(=O)C4CC4)cc3)n2)n[nH]1 [Tozasertib] (partner 0.1 µM)
Outline: as §1

[4] = compound: CC(C)N(CCCNC(=O)Nc1ccc(C(C)(C)C)cc1)C[C@H]1O[C@@H](n2ccc3c(N)ncnc32)[C@H](O)[C@@H]1O + COc1cc2c(Oc3ccc(NC(=O)C4(C(=O)Nc5ccc(F)cc5)CC4)cc3F)ccnc2cc1OCCCN1CCOCC1 [Foretinib] (partner 0.25 µM)
Outline: as §1

Row | Cell Line | relative viability ([1]; first compound 0.08 µM) | relative viability ([1]; first compound 0.253 µM) | relative viability ([1]; first compound 0.8 µM) | relative viability ([1]; first compound 2.53 µM) | relative viability ([1]; first compound 8 µM) | relative viability ([2]; first compound 0.08 µM) | relative viability ([2]; first compound 0.253 µM) | relative viability ([2]; first compound 0.8 µM) | relative viability ([2]; first compound 2.53 µM) | relative viability ([2]; first compound 8 µM) | relative viability ([3]; first compound 0.01 µM) | relative viability ([3]; first compound 0.1 µM) | relative viability ([3]; first compound 0.3162 µM) | relative viability ([3]; first compound 1 µM) | relative viability ([4]; first compound 0.08 µM) | relative viability ([4]; first compound 0.253 µM) | relative viability ([4]; first compound 0.8 µM) | relative viability ([4]; first compound 2.53 µM) | relative viability ([4]; first compound 8 µM)
1 | LCLC-103H | 1.04 | 0.887 | 0.959 | 1.04 | 0.917 | 1.09 | 1 | 0.686 | 1.04 | 1.02 | 0.452 | 0.498 | 0.52 | 0.516 | 0.704 | 0.744 | 0.717 | 0.627 | 0.71
2 | LOU-NH91 | 0.944 | 0.873 | – | 0.998 | 0.918 | 0.442 | 0.449 | – | 0.421 | 0.608 | 0.685 | 0.711 | 0.613 | 0.683 | 0.858 | 0.946 | 0.571 | 0.958 | 0.924
3 | LU99A | 0.516 | 0.405 | 0.521 | 0.582 | 0.563 | 1.12 | 0.831 | 1.38 | 1.16 | 1.2 | 0.248 | 0.281 | 0.298 | 0.234 | 0.795 | 0.782 | 0.78 | 0.767 | 0.749
4 | LXF-289 | 0.994 | 1.03 | 0.951 | 1.01 | 0.928 | 1 | 0.993 | 0.719 | 1.03 | 0.98 | 0.212 | 0.183 | 0.209 | 0.196 | 0.96 | 1.03 | 0.94 | 1.01 | 0.94
5 | NCI-H23 | 0.57 | – | 0.556 | 0.577 | 0.592 | 0.837 | – | 0.523 | 0.94 | 1.17 | 0.363 | 0.335 | 0.658 | 0.413 | 0.891 | 0.964 | 1.02 | 0.937 | 0.945
6 | NCI-H322M | 0.863 | 0.81 | 0.877 | 0.861 | 0.894 | 1.11 | 1.13 | 1.12 | 1.39 | 1.38 | 0.486 | 0.467 | 0.478 | 0.381 | 0.904 | 0.894 | 0.94 | 1.02 | 1.06
7 | NCI-H441 | 0.565 | 0.557 | 0.602 | 0.611 | 0.636 | – | 0.488 | 0.144 | 0.875 | 0.819 | 0.898 | 0.617 | 0.663 | 0.601 | 1.01 | 0.913 | – | 0.801 | 0.968
8 | NCI-H460 | 0.722 | 0.775 | 0.627 | 0.66 | 0.678 | 0.967 | 1.3 | 1.2 | 1.15 | 1.13 | 0.456 | 0.496 | 0.483 | 0.414 | 1.05 | 1.1 | 1.03 | 1.05 | 0.996
9 | NCI-H520 | 0.943 | 0.87 | 0.882 | 1 | 0.894 | 0.581 | 0.179 | 0.155 | 0.647 | 0.524 | 0.49 | 0.436 | 0.475 | 0.433 | 0.685 | 0.878 | 0.644 | 0.817 | 0.704
10 | NCI-H596 | 0.991 | 0.926 | 1.02 | 1.08 | 1.21 | 0.997 | 0.843 | 0.746 | 1.05 | 1.2 | 0.79 | 0.83 | 0.914 | 0.732 | 0.792 | – | 0.846 | 1.02 | 0.872
11 | NCI-H647 | 1.12 | – | 1.17 | 1.13 | 1.03 | 0.761 | – | 0.2 | 0.821 | 0.809 | 0.407 | 0.323 | 0.247 | 0.193 | 1.23 | 1.27 | – | 1.17 | 1.13
12 | NCI-H650 | 0.757 | 0.732 | 1.04 | 0.791 | 0.704 | 0.785 | 0.598 | 0.773 | 0.682 | 0.796 | 0.69 | 0.793 | 0.788 | 0.66 | 0.966 | 1.03 | 1.05 | 1.07 | 0.962
13 | NCI-H661 | 0.473 | 0.553 | 0.585 | 0.567 | 0.57 | 0.63 | 0.753 | 0.625 | 0.747 | 0.719 | 0.371 | 0.359 | 0.355 | 0.37 | 1.08 | 1.13 | 1.09 | 1.11 | 1.06
14 | NCI-H727 | 0.333 | 0.281 | 0.286 | 0.359 | 0.209 | 0.829 | 0.696 | 0.583 | 0.935 | 0.734 | 1.64 | 0.672 | 0.634 | 0.697 | 0.872 | 0.891 | 0.777 | 1.13 | 0.877
15 | NCI-H838 | 0.938 | 0.952 | 0.99 | 1.01 | 0.875 | 0.755 | 0.372 | 0.626 | 0.672 | 0.788 | 0.289 | 0.264 | 0.257 | 0.29 | 1.05 | 0.981 | 1.17 | 0.981 | 0.943
16 | NCI-H1355 | 0.751 | 0.768 | – | 0.859 | 0.843 | 1.15 | 1.2 | – | 1.22 | 1.08 | 0.559 | 0.553 | 0.554 | 0.583 | 0.755 | 0.839 | 0.933 | 0.941 | 0.972
17 | NCI-H1437 | 0.974 | 1.03 | 1.16 | 1.05 | 0.936 | 0.526 | 0.417 | 0.309 | 0.423 | 0.536 | 0.417 | 0.43 | 0.405 | 0.455 | 1.21 | 1.2 | 1.19 | 1.23 | 1.11
